Here are results for two molecules from article PMC5862592, “CDK8/19 inhibition induces premature G1/S transition and ATR-dependent cell death in prostate cancer cells” (Oncotarget, 2018).

Read-outs that look alike come from different tables or passages of the source.

Holding throughout (assay): biochemical
What all share (design): KINOMEscan active site-directed competition binding assay (DiscoveRx), 456 kinases, per cent of control at 300 nM
Details in all cases: read-out: Percent of Control (%)

Assay [1] addresses T1, ABL1(F317L)-phosphorylated (Homo sapiens, UniProt P00519, F317L).
T1 construct: phosphorylated
As for the experimental part: (§1) Kinase selectivity of T-474 and T-418 was evaluated at 300 nmol/L using a panel of 456 kinases at DiscoveRx (KINOMEscan). The platform employs an active site-directed competition binding assay to quantitatively measure interactions between test compounds and kinases. […] In VCaP prostate cancer cells, treatment with T-474 or T-418 suppressed the phosphorylation of the known CDK8 substrate STAT1 at Ser727 both in the absence and in the presence of IFN-γ (Figure 1B), which stimulates CDK8-mediated STAT1 phosphorylation.

The next assay deals with BUB1 (Homo sapiens, UniProt O43683). The procedure:
as §1

In the next assay the target is CLK2 (Homo sapiens, UniProt P49760). The procedure: as §1
A further assay has as its target CSNK2A2 (Homo sapiens, UniProt P19784). The procedure:
as §1

Another assay concerns the target T2, DCAMKL1 (Homo sapiens, UniProt O15075).
T2 construct: gene DCLK1
The procedure: as §1

The target in the next assay is T3, DRAK1 (Homo sapiens, UniProt Q9UEE5).
T3 construct: gene STK17A
The procedure: as §1

A further assay has as its target EGFR(T790M) (Homo sapiens, UniProt P00533, T790M). As for the experimental part: as §1
For another assay, the target named is FGFR3 (Homo sapiens, UniProt P22607). As for the experimental part:
as §1

The target in a further assay is T4, HPK1 (Homo sapiens, UniProt Q92918).
T4 construct: gene MAP4K1
The procedure:
as §1

In a further assay the target is LATS1 (Homo sapiens, UniProt O95835). As for the experimental part: as §1
In a further assay the target is LIMK2 (Homo sapiens, UniProt P53671). As for the experimental part: as §1
In another assay the target is MAST1 (Homo sapiens, UniProt Q9Y2H9). The procedure:
as §1

Another assay concerns the target PAK1 (Homo sapiens, UniProt Q13153). The procedure: as §1
Another assay has as its target PAK4 (Homo sapiens, UniProt O96013). As for the experimental part:
as §1

The next assay deals with PIK3CA (Homo sapiens, UniProt P42336). As for the experimental part: as §1
The target in a further assay is PIP5K1C (Homo sapiens, UniProt O60331). As for the experimental part:
as §1

The target in another assay is T5, PIP5K2B (Homo sapiens, UniProt P78356).
T5 construct: gene PIP4K2B
The procedure: as §1

In a further assay the target is PRKG1 (Homo sapiens, UniProt Q13976). As for the experimental part:
as §1

A further assay concerns the target RIPK4 (Homo sapiens, UniProt P57078). As for the experimental part:
as §1

Assay [2] deals with T6, RSK4(Kin.Dom.1-N-terminal) (Homo sapiens, UniProt Q9UK32).
T6 construct: gene RPS6KA6; Kin.Dom.1-N-terminal
The procedure: as §1

A further assay concerns the target TXK (Homo sapiens, UniProt P42681). The procedure: as §1
A further assay concerns the target ZAP70 (Homo sapiens, UniProt P43403). The procedure: as §1

Sequence of ZAP70 (P43403 whole entry): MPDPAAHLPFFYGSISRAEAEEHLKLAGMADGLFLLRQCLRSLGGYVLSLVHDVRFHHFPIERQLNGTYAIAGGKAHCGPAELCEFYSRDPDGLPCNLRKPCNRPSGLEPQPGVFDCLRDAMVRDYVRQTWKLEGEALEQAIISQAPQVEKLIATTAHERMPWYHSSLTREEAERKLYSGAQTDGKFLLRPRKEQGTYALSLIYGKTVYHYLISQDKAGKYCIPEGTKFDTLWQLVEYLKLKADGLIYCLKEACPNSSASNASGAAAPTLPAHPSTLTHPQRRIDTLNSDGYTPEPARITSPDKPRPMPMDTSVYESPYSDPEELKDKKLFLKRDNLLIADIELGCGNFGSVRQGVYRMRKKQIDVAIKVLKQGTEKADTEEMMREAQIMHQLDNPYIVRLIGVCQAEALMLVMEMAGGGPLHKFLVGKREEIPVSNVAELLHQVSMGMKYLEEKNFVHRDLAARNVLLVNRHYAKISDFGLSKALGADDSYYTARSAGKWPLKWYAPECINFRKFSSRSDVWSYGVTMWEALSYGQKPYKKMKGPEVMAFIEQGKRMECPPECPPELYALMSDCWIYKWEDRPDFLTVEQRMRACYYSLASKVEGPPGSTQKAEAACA
Sequence of TXK (P42681 whole entry): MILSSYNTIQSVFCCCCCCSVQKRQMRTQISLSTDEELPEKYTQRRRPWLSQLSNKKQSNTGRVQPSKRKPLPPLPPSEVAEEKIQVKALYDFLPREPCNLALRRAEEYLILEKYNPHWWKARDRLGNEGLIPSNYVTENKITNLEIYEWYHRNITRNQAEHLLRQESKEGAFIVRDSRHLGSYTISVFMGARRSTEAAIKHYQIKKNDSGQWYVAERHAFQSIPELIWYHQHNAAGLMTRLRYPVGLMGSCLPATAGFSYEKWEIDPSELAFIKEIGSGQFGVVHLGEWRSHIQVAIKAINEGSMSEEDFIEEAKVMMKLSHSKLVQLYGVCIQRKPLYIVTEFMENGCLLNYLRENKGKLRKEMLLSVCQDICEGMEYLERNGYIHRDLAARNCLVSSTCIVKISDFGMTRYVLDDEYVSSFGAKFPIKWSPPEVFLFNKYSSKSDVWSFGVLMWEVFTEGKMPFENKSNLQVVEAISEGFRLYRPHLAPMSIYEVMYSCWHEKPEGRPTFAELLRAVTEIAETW
Sequence of PRKG1 (Q13976 whole entry): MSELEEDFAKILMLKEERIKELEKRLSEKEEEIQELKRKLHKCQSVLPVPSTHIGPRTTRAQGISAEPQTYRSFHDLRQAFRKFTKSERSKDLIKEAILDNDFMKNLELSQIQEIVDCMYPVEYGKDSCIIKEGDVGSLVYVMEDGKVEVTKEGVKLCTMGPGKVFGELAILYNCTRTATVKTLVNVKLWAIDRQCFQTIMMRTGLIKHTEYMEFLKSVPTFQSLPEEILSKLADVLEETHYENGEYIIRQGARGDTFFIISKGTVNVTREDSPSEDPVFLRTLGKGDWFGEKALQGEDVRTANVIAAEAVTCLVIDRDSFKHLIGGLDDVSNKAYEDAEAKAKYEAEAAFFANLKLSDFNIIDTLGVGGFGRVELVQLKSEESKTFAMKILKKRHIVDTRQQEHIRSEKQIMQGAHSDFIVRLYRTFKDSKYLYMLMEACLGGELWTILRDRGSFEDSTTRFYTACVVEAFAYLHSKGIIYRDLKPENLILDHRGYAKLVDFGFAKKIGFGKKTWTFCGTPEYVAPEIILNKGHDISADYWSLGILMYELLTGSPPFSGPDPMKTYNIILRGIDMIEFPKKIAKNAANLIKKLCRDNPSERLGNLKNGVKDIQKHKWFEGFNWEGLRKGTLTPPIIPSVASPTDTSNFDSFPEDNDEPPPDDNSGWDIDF
T3 sequence (Q9UEE5 whole entry): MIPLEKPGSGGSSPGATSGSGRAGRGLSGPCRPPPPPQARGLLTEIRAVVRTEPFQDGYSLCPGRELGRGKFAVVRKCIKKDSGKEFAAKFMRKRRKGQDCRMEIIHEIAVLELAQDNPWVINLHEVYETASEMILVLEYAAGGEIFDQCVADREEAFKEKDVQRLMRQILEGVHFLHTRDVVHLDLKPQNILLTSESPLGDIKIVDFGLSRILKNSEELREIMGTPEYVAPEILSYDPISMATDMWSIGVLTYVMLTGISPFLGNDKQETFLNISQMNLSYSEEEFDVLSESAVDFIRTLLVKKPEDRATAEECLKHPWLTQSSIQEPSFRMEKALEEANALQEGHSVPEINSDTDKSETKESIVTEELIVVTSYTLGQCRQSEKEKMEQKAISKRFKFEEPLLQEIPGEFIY
T1 sequence (P00519 whole entry F317L): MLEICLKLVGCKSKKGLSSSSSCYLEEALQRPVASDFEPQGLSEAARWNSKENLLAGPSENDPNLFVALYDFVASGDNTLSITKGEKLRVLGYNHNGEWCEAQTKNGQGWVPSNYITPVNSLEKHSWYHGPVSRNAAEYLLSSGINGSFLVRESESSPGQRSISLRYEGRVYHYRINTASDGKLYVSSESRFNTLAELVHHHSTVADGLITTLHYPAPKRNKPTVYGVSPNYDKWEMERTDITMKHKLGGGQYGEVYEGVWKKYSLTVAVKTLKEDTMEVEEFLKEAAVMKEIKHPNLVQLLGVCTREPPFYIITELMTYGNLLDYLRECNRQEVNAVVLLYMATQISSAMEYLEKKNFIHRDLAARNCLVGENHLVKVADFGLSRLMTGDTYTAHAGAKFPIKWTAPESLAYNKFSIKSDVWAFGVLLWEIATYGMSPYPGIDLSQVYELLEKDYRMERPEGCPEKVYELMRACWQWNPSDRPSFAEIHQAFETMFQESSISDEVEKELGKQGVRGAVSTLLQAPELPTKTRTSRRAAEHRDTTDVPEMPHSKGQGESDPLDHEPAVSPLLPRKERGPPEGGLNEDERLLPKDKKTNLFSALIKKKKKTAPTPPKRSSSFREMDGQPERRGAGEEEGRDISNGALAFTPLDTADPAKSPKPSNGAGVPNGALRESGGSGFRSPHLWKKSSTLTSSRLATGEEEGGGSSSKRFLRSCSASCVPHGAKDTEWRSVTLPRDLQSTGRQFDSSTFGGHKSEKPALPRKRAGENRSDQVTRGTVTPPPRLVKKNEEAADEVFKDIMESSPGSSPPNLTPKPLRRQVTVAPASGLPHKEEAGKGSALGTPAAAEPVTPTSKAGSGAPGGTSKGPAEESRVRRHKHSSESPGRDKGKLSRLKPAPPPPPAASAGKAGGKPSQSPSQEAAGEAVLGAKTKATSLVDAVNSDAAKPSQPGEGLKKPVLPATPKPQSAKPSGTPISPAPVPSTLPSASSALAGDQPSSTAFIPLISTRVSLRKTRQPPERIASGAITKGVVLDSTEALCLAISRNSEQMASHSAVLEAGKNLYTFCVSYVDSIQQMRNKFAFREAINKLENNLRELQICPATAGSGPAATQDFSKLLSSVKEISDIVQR
Sequence of PAK1 (Q13153 whole entry): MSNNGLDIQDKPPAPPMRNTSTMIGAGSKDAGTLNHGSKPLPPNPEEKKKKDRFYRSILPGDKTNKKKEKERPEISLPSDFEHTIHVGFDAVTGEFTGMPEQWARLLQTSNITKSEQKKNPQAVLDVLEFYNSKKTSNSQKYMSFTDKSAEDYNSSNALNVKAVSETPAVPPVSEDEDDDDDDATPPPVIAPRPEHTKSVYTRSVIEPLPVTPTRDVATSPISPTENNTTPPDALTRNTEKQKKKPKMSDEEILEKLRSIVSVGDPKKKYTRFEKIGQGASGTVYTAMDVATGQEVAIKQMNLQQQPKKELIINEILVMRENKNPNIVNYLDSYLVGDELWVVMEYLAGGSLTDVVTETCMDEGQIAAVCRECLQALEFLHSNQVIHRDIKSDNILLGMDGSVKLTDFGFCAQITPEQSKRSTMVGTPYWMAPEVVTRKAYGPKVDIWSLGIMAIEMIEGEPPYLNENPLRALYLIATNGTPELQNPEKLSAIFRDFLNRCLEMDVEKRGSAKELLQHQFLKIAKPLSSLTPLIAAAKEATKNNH
T4 sequence (Q92918 whole entry): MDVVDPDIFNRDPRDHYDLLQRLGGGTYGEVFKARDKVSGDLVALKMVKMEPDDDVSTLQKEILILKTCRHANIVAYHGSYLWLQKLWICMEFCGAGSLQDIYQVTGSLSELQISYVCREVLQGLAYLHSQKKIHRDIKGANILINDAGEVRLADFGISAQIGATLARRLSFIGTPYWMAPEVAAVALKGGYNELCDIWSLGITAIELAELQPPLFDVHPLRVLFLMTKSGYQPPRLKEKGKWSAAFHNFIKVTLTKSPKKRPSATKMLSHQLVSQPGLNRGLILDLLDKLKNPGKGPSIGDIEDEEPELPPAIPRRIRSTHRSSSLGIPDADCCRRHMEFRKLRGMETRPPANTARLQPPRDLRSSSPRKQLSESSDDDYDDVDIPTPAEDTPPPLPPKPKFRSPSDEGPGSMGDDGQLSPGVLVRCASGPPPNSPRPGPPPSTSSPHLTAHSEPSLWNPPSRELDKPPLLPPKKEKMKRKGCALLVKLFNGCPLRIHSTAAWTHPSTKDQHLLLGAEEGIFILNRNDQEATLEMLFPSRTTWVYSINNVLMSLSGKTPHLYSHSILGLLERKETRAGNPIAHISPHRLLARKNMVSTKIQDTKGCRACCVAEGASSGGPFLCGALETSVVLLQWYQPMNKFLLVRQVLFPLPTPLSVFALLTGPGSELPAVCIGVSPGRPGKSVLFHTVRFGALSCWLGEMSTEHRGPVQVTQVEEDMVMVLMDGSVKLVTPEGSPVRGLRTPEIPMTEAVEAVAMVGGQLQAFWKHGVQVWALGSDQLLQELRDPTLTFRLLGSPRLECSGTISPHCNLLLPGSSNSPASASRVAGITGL

In the case of `O=C(/C=C/c1cnccc1-c1ccc(F)cc1)Nc1ccc(CCc2nnco2)cc1` [T-418, (2E)-3-(4-(4-fluorophenyl)pyridin-3-yl)-N-(4-(2-(1,3,4-oxadiazol-2-yl)ethyl)phenyl)acrylamide], the remaining binding at 0.3 µM in assay [1] (sheet T-418) turned out to be 100%; on BUB1 (sheet T-418) it was 100%; at CLK2 (sheet T-418) it was 88%; at CSNK2A2 (sheet T-418), 100%; on DCAMKL1 (sheet T-418) it was 52%; at DRAK1 (sheet T-418), 100%. Also, the remaining binding at 0.3 µM at EGFR(T790M) (sheet T-418) is 95%; on FGFR3 (sheet T-418), 100%; at HPK1 (sheet T-418) it was 95%; at LATS1 (sheet T-418), 60%; at LIMK2 (sheet T-418) it was 74%; on MAST1 (sheet T-418), 100%. In addition, the remaining binding at 0.3 µM at PAK1 (sheet T-418) turned out to be 76%; at PAK4 (sheet T-418), 99%; on PIK3CA (sheet T-418) it was 84%; at PIP5K1C (sheet T-418) it was 100%; on PIP5K2B (sheet T-418), 94%; at PRKG1 (sheet T-418), 87%. In addition, the remaining binding at 0.3 µM worked out at 100% at RIPK4 (sheet T-418), 100% in assay [2] (sheet T-418), 72% at TXK (sheet T-418) and 86% at ZAP70 (sheet T-418).
Turning to `Cc1ncccc1Oc1sc(C(N)=O)c2c1-c1c(cnn1C)CC2` [T-474, 1-methyl-8-((2-methylpyridin-3-yl)oxy)-4,5-dihydro-1H-thieno[3,4-g]indazole-6-carboxamide], the remaining binding at 0.3 µM in assay [1] was 100%; at BUB1, 100%; on CLK2 it was 46%; on CSNK2A2, 100%; on DCAMKL1 it was 69%; at DRAK1 it was 100%. Also, the remaining binding at 0.3 µM at EGFR(T790M) worked out at 100%; at FGFR3, 97%; on HPK1, 78%; at LATS1, 67%; on LIMK2, 79%; at MAST1, 100%. Further, the remaining binding at 0.3 µM on PAK1 came to 94%; on PAK4, 100%; on PIK3CA it was 92%; at PIP5K1C, 100%; at PIP5K2B it was 100%; on PRKG1 it was 100%. In addition, the remaining binding at 0.3 µM was 100% at RIPK4, 100% in [2], 66% at TXK and 100% on ZAP70.
